Results taken from patent publication US20040087633A1, “Methylidene oxazolidinone compound and preparation method thereof” (Korea Institute of Science and Technology, priority 2002, published 2004).
Values after ≈ are worked out from the molar mass of the structure shown.

Assays:
Assay in all cases: Anti-microbial activity test in vitro (agar dilution MIC)
[1] = tested on: S. pyogenes ATCC8668; format: cell-based; details: S. pyogenes ATCC8668; Agar Dilution method, Mueller Hinton Agar, 18 hours at 37° C.
How it was run: (§1)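 MIC in μg/ml, scored by eye after 18 h at 37 °C on Mueller Hinton agar plates carrying twofold stepwise compound dilutions.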

[2] = tested on: E. faecium C2252; format: cell-based; details: E. faecium C2252; Agar Dilution method, Mueller Hinton Agar, 18 hours at 37° C.
How it was run: as §1

[3] = tested on: E. faecium C6301; format: cell-based; details: E. faecium C6301; Agar Dilution method, Mueller Hinton Agar, 18 hours at 37° C.
How it was run: as §1

[4] = tested on: S. epidermidis ATCC12228; format: cell-based; details: S. epidermidis ATCC12228; Agar Dilution method, Mueller Hinton Agar, 18 hours at 37° C.
How it was run: as §1

[5] = tested on: S. pyogenes C6012; format: cell-based; details: S. pyogenes C6012; Agar Dilution method, Mueller Hinton Agar, 18 hours at 37° C.
How it was run: as §1

[6] = tested on: E. faecalis C6291; format: cell-based; details: E. faecalis C6291; Agar Dilution method, Mueller Hinton Agar, 18 hours at 37° C.
How it was run: as §1

[7] = tested on: S. epidermidis C2230; format: cell-based; details: S. epidermidis C2230; Agar Dilution method, Mueller Hinton Agar, 18 hours at 37° C.
How it was run: as §1

[8] = tested on: E. faecalis ATCC29212; format: cell-based; details: E. faecalis ATCC29212; Agar Dilution method, Mueller Hinton Agar, 18 hours at 37° C.
How it was run: as §1

[9] = tested on: S. pyogenes C6003; format: cell-based; details: S. pyogenes C6003; Agar Dilution method, Mueller Hinton Agar, 18 hours at 37° C.
How it was run: as §1

[10] = tested on: E. faecalis C6288; format: cell-based; details: E. faecalis C6288; Agar Dilution method, Mueller Hinton Agar, 18 hours at 37° C.
How it was run: as §1

[11] = tested on: S. aureus ATCC 29213; format: cell-based; details: Agar Dilution method, Mueller Hinton Agar, 18 hours at 37° C.
How it was run: as §1

[12] = tested on: S. epidermidis C2235; format: cell-based; details: S. epidermidis C2235; Agar Dilution method, Mueller Hinton Agar, 18 hours at 37° C.
How it was run: as §1

[13] = tested on: MSSA C7142; format: cell-based, Staphylococcus aureus; details: MSSA C7142; Agar Dilution method, Mueller Hinton Agar, 18 hours at 37° C.
How it was run: as §1

[14] = tested on: MRSA C6068; format: cell-based, Staphylococcus aureus; details: MRSA C6068; Agar Dilution method, Mueller Hinton Agar, 18 hours at 37° C.
How it was run: as §1

[15] = tested on: MRSA C2207; format: cell-based, Staphylococcus aureus; details: MRSA C2207; Agar Dilution method, Mueller Hinton Agar, 18 hours at 37° C.
How it was run: as §1

[16] = tested on: MSSA C2214; format: cell-based, Staphylococcus aureus; details: MSSA C2214; Agar Dilution method, Mueller Hinton Agar, 18 hours at 37° C.
How it was run: as §1

[17] = tested on: CRSA C6043; format: cell-based, Staphylococcus aureus; details: CRSA C6043; Agar Dilution method, Mueller Hinton Agar, 18 hours at 37° C.
How it was run: as §1

[18] = tested on: CRSA C1062; format: cell-based, Staphylococcus aureus; details: CRSA C1062; Agar Dilution method, Mueller Hinton Agar, 18 hours at 37° C.
How it was run: as §1

[19] = tested on: MRSA C5100; format: cell-based, Staphylococcus aureus; details: MRSA C5100; Agar Dilution method, Mueller Hinton Agar, 18 hours at 37° C.
How it was run: as §1

[20] = tested on: VRE C6487; format: cell-based, Enterococcus faecium; details: VRE C6487; Agar Dilution method, Mueller Hinton Agar, 18 hours at 37° C.
How it was run: as §1

[21] = tested on: VRE C6488; format: cell-based, Enterococcus faecium; details: VRE C6488; Agar Dilution method, Mueller Hinton Agar, 18 hours at 37° C.
How it was run: as §1

Structure (SMILES)	Minimum inhibition concentration (MIC) [1] [µg/mL]	Minimum inhibition concentration (MIC) [2] [µg/mL]	Minimum inhibition concentration (MIC) [3] [µg/mL]	Minimum inhibition concentration (MIC) [4] [µg/mL]	Minimum inhibition concentration (MIC) [5] [µg/mL]	Minimum inhibition concentration (MIC) [6] [µg/mL]	Minimum inhibition concentration (MIC) [7] [µg/mL]	Minimum inhibition concentration (MIC) [8] [µg/mL]	Minimum inhibition concentration (MIC) [9] [µg/mL]	Minimum inhibition concentration (MIC) [10] [µg/mL]	Minimum inhibition concentration (MIC) [11] [µg/mL]	Minimum inhibition concentration (MIC) [12] [µg/mL]	Minimum inhibition concentration (MIC) [13] [µg/mL]	Minimum inhibition concentration (MIC) [14] [µg/mL]	Minimum inhibition concentration (MIC) [15] [µg/mL]	Minimum inhibition concentration (MIC) [16] [µg/mL]	Minimum inhibition concentration (MIC) [17] [µg/mL]	Minimum inhibition concentration (MIC) [18] [µg/mL]	Minimum inhibition concentration (MIC) [19] [µg/mL]	Minimum inhibition concentration (MIC) [20] [µg/mL]	other results
CC(=S)NC[C@H]1CN(c2ccc(N3CCC(=CC#N)CC3)c(F)c2)C(=O)O1 [Compound 26, N-[[(5S)-3-[3-fluoro-4-(4-(cyanomethylidene)piperidinyl)-phenyl]-2-oxo-5-oxazolidinyl]methyl]thioacetamide]	0.5 (≈ 1.29 µM)	1 (≈ 2.57 µM)	1 (≈ 2.57 µM)	0.5 (≈ 1.29 µM)	0.25 (≈ 0.644 µM)	1 (≈ 2.57 µM)	1 (≈ 2.57 µM)	2 (≈ 5.15 µM)	0.25 (≈ 0.644 µM)	1 (≈ 2.57 µM)	2 (≈ 5.15 µM)	0.5 (≈ 1.29 µM)	2 (≈ 5.15 µM)	2 (≈ 5.15 µM)	2 (≈ 5.15 µM)	2 (≈ 5.15 µM)	2 (≈ 5.15 µM)	2 (≈ 5.15 µM)	1 (≈ 2.57 µM)	0.5 (≈ 1.29 µM)	Minimum inhibition concentration (MIC) [21]: 0.5 µg/mL (≈ 1.29 µM)
CC(=O)NC[C@H]1CN(c2ccc(N3CCC(=CC#N)CC3)c(F)c2)C(=O)O1 [Compound 8, N-[[(5S)-3-[3-fluoro-4-(4-cyanomethylidenepiperidinyl)-phenyl]-2-oxo-5-oxazolidinyl]methyl]acetamide]	0.5 (≈ 1.34 µM)	2 (≈ 5.37 µM)	2 (≈ 5.37 µM)	0.5 (≈ 1.34 µM)	0.5 (≈ 1.34 µM)	2 (≈ 5.37 µM)	2 (≈ 5.37 µM)	2 (≈ 5.37 µM)	2 (≈ 5.37 µM)	2 (≈ 5.37 µM)	2 (≈ 5.37 µM)	1 (≈ 2.69 µM)	2 (≈ 5.37 µM)	1 (≈ 2.69 µM)	2 (≈ 5.37 µM)	4 (≈ 10.7 µM)	2 (≈ 5.37 µM)	2 (≈ 5.37 µM)	2 (≈ 5.37 µM)	4 (≈ 10.7 µM)	Minimum inhibition concentration (MIC) [21]: 4 µg/mL (≈ 10.7 µM)
CC(=O)NC[C@H]1CN(c2ccc(N3CCC(=CC(C)OC(C)=O)CC3)c(F)c2)C(=O)O1 (stereo partly drawn) [Compound 23, N-[[(5S)-3-[3-fluoro-4-(4-(2-acetoxypropylidene)-piperidinyl)phenyl]-2-oxo-5-oxazolidinyl]methyl]acetamide]	0.5 (≈ 1.15 µM)	8 (≈ 18.5 µM)	8 (≈ 18.5 µM)	2 (≈ 4.61 µM)	2 (≈ 4.61 µM)	8 (≈ 18.5 µM)	8 (≈ 18.5 µM)	8 (≈ 18.5 µM)	8 (≈ 18.5 µM)	8 (≈ 18.5 µM)	16 (≈ 36.9 µM)	8 (≈ 18.5 µM)	16 (≈ 36.9 µM)	8 (≈ 18.5 µM)	8 (≈ 18.5 µM)	16 (≈ 36.9 µM)	16 (≈ 36.9 µM)	16 (≈ 36.9 µM)	16 (≈ 36.9 µM)	4 (≈ 9.23 µM)	Minimum inhibition concentration (MIC) [21]: 4 µg/mL (≈ 9.23 µM)
